This note sets out measurements from US7855076B2, “Use of discoidin domain receptor 1 (DDR1) and agents that affect the DDR1/collagen pathway” (The United States of America as represented by the …, priority 2002, dated 2010).

The subject of one assay is NF-κB. In words: NF-κB luciferase reporter assay in THP-1 cells. Type of assay: cell-based, human. The note with it: DDR1b-overexpressing cells. How it is done:
For the results shown in FIG. 7A, mock-transduced or DDR1b-overexpressing THP-1 cells were transfected with 10 μg of the NF-κB-Luc plasmid and 5 μg of pSV-β-galactosidese plasmid DNA (Promega, Madison, Wis.) per 100-mm tissue culture plate using Effectene Transfection Reagent (Qiagen, Valencia, Calif.), according to the manufacture's protocol. After a 12-hour incubation, cells were rinsed with phosphate buffered saline (PBS) and then incubated with 10 nM PMA on collagen-coated plates in the presence of absence of SB203580, PD98059, CAPE or dimethlysulfoxide (DMSO) for another 12 hours. Cells were collected and lysed using the Reporter Lysis Buffer (Promega, Madison, Wis.), and luciferase activity and β-galactosidase activities were measured according to the protocol provided by the manufacturer. The resulting luciferase activity was corrected based on the β-galactosidase activity in the same cell extract. For the results shown in FIG. 7B, DDR1b-overexpressing THP-1 cells were transfected with 10 μg of the pGLM-ENH, or pGLM-MA1MA2 (Ueda et al., J. Bio. Chem. 272: 31092-9, 1997) and 5 μg of pSV-β-galactosidese plasmid DNA (Promega, Madison, Wis.) per 100-mm tissue culture plate using Effectene Transfection Reagent (Qiagen, Valencia, Calif.) according to the manufacture's protocol. […] Cells were collected and lysed using the Reporter Lysis Buffer (Promega, Madison, Wis.), and luciferase activity and β-galactosidase activities were measured according to the protocol provided by the manufacturer. […]
Mock-transduced or DDR1b-overexpressing THP-1 cells were transfected with 10 μg of the NF-κB-Luc plasmid, pGL-ENH, or pGL-MA1MA2 and 5 μg of pSV-β-galactosidase plasmid DNA (Promega, Madison, Wis.) per 100-mm tissue culture plate using Effectene Transfection Reagent (Qiagen, Valencia, Calif.) according to the manufacture's protocol. […] Luciferase activity and β-galactosidase activities were measured according to the protocol provided by the manufacturer. […]
In general terms: In a reporter assay the amount or activity of a reporter protein is the signal.

The next assay concerns THP-1 cells. In words: Flow cytometry of HLA-DR, CD11c, CD14, CD40 on PMA-treated THP-1 cells. Type of assay: cell-based, human. How it is done:
FIG. 5 is a graph showing the effects of collagen-activation of two DDR1 isoforms on the expression of CD11c, CD14, and CD40. Each cell line was plated at 5×10^6 cells/ml on either uncoated or collagen-coated plates and incubated at 37° C. for 24 hours in the presence of 10 nM PMA. Anti-1β integrin antibody (10 μg/ml) was used to block the effect of 1β integrin-collagen interaction. The percentage of CD11c, CD14, or CD40-positive cells is shown. Data are presented as the mean ±SD from three independent experiments.
Parental, mock, DDR1a-overexpressing, or DDR1b overexpressing THP-1 cells were plated at 5×10^6 cells/ml on either uncoated or collagen-coated plates and incubated at 37° C. for 24 or 48 hours in the presence of 10 nM PMA. One hundred thousand cells were suspended in 50 μl of cold PBS containing 0.1% NaN3, […] BSA and 200 μg/ml human IgG in a Falcon 2052 tube, and incubated for 10 minutes on ice. One μg of mouse monoclonal antibody against CD11c, CD14 CD40, or HLA-DR, or control mouse IgG were added to each tube and the cells were incubated for another 15 minutes on ice. The cells were washed with PBS, and then incubated with 1 μg of FITC-conjugated goat anti-mouse IgG for 15 minutes on ice. At the end of incubation, propidium iodide (PI) (100 μM) was added to each tube. The cells were washed by PBS, and subsequently analyzed by using a FACS scan (Becton Dickinson). Dead cells, determined by the incorporation of PI, were gated out. Results were processed by using the Cellquest software (Becton Dickinson).
The cells were then rinsed three times with RPMI 1640 containing 10% FCS, and incubated either with the p38 MAP kinase inhibitor SB203580, the MEK (MAP or ERK kinase) ½ inhibitor PD98059, or dimethylsulfoxide (DMSO) for 30 minutes, followed by an additional 12 hour incubation in the presence of 10 nM PMA plus collagen. The expression of HLA-DR was analyzed by flow cytometry.

Where [1] appears, read: DDR1b-overexpressing cells, collagen-coated plates, PMA, 24 hours.

For collagen, the luciferase activity result with NF-κB (PMA plus collagen, NF-κB-Luc plasmid) was “markedly increased”. The “cells expressing HLA-DR” value with THP-1 cells (DDR1b-overexpressing cells, collagen-activated, PMA-treated, 12 hours) is recorded as “Approximately 10%”; in the assay on THP-1 cells (DDR1b-overexpressing cells, collagen-coated plates, 10 nM PMA, 24 hour), “approximately 25%”; in the assay on THP-1 cells (DDR1b-overexpressing cells, collagen-coated plates, 10 nM PMA, 48 hour) it was “Approximately 70%”. Besides, the “cells expressing CD11c” value with THP-1 cells (setting [1]) is “approximately 53%”. Also, the “cells expressing CD14” value with THP-1 cells (setting [1]) was approximately 35%. In the assay on THP-1 cells (setting [1]), the “cells expressing CD40” value was “approximately 19%”.

Turning to `C[S+]([O-])c1ccc(-c2nc(-c3ccncc3)c(-c3ccc(F)cc3)[nH]2)cc1` (stereo not drawn) [SB203580], the “increase in luciferase activity induced by PMA plus collagen” value with NF-κB (12 hours) is reported as “dose-dependently inhibited”. For the same compound, the “expression of HLA-DR” value with THP-1 cells (collagen-activated PMA-treated DDR1b-overexpressing cells, 24 hours) is recorded as “dose-dependently inhibited”.
